Assay results taken from article PMC7827406, “Structure–Activity Relationship (SAR) Study of Spautin-1 to Entail the Discovery of Novel NEK4 Inhibitors” (International Journal of Molecular Sciences, 2021).
Where two headings read alike, the source gives them in different places.

Assays:
Assay in all cases: biochemical
Parameters in all cases: Eurofins KinaseProfiler full panel at Km ATP, residual kinase activity (%) relative to DMSO
CRIK(h) = biological target: T1, CRIK(h) (Homo sapiens, UniProt O14578)
T1 construct: gene CIT
T1 sequence (O14578 whole entry): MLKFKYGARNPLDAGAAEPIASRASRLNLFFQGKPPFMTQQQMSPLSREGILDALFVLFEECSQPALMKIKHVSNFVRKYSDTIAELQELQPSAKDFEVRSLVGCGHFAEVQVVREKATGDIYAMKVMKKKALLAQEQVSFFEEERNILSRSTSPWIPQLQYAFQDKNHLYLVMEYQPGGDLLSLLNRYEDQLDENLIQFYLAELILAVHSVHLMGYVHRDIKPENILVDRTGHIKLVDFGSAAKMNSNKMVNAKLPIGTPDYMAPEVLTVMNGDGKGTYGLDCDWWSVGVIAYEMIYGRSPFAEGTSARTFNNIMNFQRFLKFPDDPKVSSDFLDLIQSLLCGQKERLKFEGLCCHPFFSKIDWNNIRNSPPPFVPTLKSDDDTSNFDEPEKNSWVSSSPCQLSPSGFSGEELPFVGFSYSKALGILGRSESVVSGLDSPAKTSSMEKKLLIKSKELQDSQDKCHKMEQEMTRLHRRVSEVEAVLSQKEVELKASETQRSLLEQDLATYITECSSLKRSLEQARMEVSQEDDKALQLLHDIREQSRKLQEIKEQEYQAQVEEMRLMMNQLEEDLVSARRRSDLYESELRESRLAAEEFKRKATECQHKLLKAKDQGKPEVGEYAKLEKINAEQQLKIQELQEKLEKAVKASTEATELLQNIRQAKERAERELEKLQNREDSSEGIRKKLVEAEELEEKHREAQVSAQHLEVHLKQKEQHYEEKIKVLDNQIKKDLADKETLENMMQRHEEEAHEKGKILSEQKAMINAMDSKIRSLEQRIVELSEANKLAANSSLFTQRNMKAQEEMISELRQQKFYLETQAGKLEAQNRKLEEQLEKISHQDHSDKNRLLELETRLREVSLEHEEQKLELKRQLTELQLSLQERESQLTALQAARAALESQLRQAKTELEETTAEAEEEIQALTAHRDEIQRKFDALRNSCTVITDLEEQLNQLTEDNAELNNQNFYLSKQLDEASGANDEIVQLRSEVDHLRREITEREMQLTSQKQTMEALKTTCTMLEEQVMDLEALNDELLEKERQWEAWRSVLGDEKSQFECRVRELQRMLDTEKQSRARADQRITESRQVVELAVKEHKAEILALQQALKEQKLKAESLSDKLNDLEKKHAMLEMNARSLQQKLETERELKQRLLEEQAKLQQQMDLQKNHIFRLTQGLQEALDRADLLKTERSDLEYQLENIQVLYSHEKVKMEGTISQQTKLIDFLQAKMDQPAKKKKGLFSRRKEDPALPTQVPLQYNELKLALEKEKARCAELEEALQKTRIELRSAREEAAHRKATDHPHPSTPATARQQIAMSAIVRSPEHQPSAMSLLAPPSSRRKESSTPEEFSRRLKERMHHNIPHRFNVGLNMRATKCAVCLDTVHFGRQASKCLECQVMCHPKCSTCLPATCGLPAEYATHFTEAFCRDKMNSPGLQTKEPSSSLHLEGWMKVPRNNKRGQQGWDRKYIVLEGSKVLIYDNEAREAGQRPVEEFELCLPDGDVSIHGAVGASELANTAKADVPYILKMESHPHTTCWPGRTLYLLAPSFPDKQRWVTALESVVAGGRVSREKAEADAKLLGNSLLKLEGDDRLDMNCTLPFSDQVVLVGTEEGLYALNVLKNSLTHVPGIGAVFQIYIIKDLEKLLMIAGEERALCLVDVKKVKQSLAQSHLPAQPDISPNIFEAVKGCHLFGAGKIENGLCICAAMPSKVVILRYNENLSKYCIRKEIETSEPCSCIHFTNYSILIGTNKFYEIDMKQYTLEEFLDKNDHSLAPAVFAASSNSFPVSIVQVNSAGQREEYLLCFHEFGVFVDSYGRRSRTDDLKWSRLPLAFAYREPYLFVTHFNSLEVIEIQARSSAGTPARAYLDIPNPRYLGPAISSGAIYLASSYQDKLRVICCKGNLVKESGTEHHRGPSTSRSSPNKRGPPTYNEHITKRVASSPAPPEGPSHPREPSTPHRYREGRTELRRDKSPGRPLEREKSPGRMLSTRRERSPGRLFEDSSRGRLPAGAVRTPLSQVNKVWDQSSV
How it was run: (§1)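 Radiometric kinase activity assays were run with ATP at Km and compounds at 10 µM, and remaining activity (%) was reported. A separate competitive binding screen measured DNA-tagged kinase displaced from immobilized active-site ligands by qPCR, giving percent kinase still bound at 10 µM compound in DMSO.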

PAK1(h) = PAK1(h) (Homo sapiens, UniProt Q13153)
Chain of PAK1(h) (Q13153 whole entry): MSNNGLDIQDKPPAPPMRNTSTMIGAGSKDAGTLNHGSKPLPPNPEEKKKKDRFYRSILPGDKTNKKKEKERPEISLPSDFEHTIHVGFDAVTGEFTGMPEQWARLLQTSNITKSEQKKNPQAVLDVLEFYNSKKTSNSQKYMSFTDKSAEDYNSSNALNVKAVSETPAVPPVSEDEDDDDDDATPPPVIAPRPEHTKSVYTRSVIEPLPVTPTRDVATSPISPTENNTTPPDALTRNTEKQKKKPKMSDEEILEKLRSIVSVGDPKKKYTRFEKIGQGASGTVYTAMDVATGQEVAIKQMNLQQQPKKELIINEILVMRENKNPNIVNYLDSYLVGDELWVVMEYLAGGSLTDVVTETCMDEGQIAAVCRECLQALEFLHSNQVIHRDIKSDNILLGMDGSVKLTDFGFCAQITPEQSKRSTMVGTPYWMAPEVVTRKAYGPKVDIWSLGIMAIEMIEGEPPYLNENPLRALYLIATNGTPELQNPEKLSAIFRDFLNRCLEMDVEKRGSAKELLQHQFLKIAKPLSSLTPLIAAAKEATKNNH
How it was run: as §1

MYO3B(h) = biological target: T2, MYO3B(h) (Homo sapiens, UniProt Q8WXR4)
T2 sequence (Q8WXR4 1-1341): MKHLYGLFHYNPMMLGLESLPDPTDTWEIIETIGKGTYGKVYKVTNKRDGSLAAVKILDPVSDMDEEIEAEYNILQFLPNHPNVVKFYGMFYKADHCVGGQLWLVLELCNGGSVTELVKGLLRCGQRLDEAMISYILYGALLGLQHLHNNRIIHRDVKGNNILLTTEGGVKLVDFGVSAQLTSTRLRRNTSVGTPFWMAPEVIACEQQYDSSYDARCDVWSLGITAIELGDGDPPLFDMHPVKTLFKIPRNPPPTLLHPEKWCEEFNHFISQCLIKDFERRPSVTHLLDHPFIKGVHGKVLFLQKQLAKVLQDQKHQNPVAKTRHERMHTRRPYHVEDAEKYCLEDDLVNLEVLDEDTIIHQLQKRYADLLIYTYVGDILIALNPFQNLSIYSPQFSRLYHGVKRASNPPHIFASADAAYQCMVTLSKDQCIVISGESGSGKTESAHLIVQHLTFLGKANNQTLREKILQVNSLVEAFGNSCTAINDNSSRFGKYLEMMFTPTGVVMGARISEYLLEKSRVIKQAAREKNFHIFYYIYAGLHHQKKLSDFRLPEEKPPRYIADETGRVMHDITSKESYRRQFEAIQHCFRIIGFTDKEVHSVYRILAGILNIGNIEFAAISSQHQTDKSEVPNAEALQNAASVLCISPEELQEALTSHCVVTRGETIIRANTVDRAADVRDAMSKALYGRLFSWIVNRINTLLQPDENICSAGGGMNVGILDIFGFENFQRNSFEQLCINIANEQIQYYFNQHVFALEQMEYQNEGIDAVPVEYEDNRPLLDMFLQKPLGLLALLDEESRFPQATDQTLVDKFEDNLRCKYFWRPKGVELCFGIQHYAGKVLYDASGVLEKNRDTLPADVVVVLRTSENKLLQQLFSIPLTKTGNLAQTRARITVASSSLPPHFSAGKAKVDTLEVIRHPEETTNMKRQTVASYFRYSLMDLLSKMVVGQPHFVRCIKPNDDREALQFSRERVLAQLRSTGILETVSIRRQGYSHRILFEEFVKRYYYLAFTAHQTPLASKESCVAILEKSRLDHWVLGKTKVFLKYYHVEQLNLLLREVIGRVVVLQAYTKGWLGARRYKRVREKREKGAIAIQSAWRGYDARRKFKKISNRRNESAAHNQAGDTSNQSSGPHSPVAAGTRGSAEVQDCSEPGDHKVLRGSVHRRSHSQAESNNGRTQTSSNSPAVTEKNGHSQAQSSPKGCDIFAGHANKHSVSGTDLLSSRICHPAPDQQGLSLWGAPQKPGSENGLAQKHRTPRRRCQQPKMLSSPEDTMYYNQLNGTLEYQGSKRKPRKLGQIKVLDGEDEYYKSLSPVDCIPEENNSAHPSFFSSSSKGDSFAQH
How it was run: as §1

Fer(h) = Fer(h) (Homo sapiens, UniProt P16591)
Chain of Fer(h) (P16591 whole entry): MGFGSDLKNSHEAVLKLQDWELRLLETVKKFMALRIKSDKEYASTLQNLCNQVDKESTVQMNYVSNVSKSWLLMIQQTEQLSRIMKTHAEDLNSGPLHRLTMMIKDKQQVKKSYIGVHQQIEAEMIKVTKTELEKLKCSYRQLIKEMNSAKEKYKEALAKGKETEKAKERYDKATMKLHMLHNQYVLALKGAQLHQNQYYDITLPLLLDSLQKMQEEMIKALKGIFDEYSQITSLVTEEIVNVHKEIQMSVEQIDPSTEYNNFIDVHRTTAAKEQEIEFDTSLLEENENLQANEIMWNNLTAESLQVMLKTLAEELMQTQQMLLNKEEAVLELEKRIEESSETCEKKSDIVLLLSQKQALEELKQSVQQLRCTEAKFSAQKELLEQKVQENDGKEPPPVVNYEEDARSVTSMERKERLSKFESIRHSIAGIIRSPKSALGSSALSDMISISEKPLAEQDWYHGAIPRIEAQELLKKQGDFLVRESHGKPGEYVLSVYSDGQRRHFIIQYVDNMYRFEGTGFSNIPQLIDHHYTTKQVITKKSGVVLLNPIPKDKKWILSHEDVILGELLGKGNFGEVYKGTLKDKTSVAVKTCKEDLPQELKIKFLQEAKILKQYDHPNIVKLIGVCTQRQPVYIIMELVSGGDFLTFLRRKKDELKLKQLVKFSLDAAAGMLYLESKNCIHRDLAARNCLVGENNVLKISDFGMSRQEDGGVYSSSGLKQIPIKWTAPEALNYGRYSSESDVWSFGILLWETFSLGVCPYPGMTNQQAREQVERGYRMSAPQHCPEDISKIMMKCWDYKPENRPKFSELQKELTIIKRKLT
How it was run: as §1

Rse(h) = biological target: T3, Rse(h) (Homo sapiens, UniProt Q06418)
T3 construct: gene TYRO3
T3 sequence (Q06418 1-890): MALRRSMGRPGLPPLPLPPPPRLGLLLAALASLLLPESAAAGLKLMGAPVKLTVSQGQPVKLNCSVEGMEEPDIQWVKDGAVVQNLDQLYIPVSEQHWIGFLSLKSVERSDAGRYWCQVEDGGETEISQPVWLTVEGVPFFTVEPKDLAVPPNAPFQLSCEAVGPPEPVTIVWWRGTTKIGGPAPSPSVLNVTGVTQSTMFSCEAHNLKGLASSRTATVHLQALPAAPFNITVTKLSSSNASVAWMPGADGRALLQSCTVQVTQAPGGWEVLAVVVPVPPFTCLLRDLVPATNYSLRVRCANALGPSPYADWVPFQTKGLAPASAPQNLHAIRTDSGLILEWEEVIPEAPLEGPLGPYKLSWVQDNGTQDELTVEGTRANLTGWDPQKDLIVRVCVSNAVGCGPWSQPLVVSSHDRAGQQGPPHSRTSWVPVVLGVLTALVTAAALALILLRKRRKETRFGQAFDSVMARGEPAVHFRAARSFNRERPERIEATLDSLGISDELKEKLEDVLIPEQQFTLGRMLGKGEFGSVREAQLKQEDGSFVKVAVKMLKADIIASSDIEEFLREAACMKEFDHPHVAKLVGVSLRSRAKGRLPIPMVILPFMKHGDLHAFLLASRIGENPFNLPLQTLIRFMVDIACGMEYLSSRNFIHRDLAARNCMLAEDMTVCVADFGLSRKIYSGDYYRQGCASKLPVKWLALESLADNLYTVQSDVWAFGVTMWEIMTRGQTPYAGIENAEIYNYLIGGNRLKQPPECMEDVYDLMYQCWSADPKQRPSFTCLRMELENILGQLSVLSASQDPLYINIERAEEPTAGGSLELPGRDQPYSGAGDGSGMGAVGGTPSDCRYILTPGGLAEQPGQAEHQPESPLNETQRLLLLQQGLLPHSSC
How it was run: as §1

[1] = read-out: Residual activity (%) 5ay
[2] = read-out: Residual activity (%) Spautin-1 5aa
[3] = read-out: Residual activity (%) 5at
[4] = read-out: Residual activity (%) 5as

Question: COc1ccc2ncnc(Nc3cccc(F)c3)c2c1 [5ay, N-(3-Fluorophenyl)-6-Methoxy-4-Quinazolinamine] was tested. Which remaining activity at 10 µM (CRIK(h); [1]) did it give?
Answer: Its remaining activity at 10 µM is 76%.

Question: What about the remaining activity at 10 µM (PAK1(h); [1]) of the same molecule?
Answer: Its remaining activity at 10 µM is 97%.

Question: And the remaining activity at 10 µM (MYO3B(h); [1])?
Answer: Its remaining activity at 10 µM is 88%.

Question: And the remaining activity at 10 µM (Fer(h); [1])?
Answer: Its remaining activity at 10 µM is 80%.

Question: What about the remaining activity at 10 µM (Rse(h); [1]) of the same molecule?
Answer: The remaining activity at 10 µM was 107%.

Question: With Fc1ccc(CNc2ncnc3ccc(F)cc23)cc1 [5aa, 6-Fluoro-N-(4-fluorobenzyl)-4-Quinazolinamine] as the molecule, how does the remaining activity at 10 µM (CRIK(h); [2]) read?
Answer: The remaining activity at 10 µM was 90%.

Question: And the remaining activity at 10 µM (PAK1(h); [2])?
Answer: Its remaining activity at 10 µM is 94%.

Question: What about the remaining activity at 10 µM (MYO3B(h); [2]) of the same molecule?
Answer: The remaining activity at 10 µM was 89%.

Question: What about the remaining activity at 10 µM (Fer(h); [2]) of the same molecule?
Answer: Its remaining activity at 10 µM is 76%.

Question: And the remaining activity at 10 µM (Rse(h); [2])?
Answer: The remaining activity at 10 µM was 104%.

Question: How did the remaining activity at 10 µM (CRIK(h); [3]) turn out when Fc1ccc2ncnc(NCCc3ccc(Cl)cc3)c2c1 [5at, N-[2-(4-Chlorophenyl)Ethyl]-6-Fluoro-4-Quinazolinamine] was run?
Answer: The remaining activity at 10 µM was 89%.

Question: And the remaining activity at 10 µM (PAK1(h); [3])?
Answer: The remaining activity at 10 µM was 90%.

Question: What about the remaining activity at 10 µM (MYO3B(h); [3]) of the same molecule?
Answer: Its remaining activity at 10 µM is 87%.

Question: And the remaining activity at 10 µM (Fer(h); [3])?
Answer: The remaining activity at 10 µM was 94%.

Question: What about the remaining activity at 10 µM (Rse(h); [3]) of the same molecule?
Answer: Its remaining activity at 10 µM is 103%.

Question: How did the remaining activity at 10 µM (CRIK(h); [4]) turn out when Fc1ccc(CCNc2ncnc3ccc(F)cc23)cc1 [5as, 6-Fluoro-N-[2-(4-Fluorophenyl)Ethyl]-4-Quinazolinamine] was run?
Answer: The remaining activity at 10 µM was 101%.

Question: And the remaining activity at 10 µM (PAK1(h); [4])?
Answer: The remaining activity at 10 µM was 81%.

Question: And the remaining activity at 10 µM (MYO3B(h); [4])?
Answer: Its remaining activity at 10 µM is 84%.

Question: And the remaining activity at 10 µM (Fer(h); [4])?
Answer: Its remaining activity at 10 µM is 98%.

Question: What about the remaining activity at 10 µM (Rse(h); [4]) of the same molecule?
Answer: Its remaining activity at 10 µM is 100%.
